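Briefly, cells in 96-well plates were exposed to five compound concentrations for 48 h, and endpoints were estimated by linear interpolation. Abbreviation: GI50, concentration required for 50% inhibition of growth.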 The source made the active and inactive calls. Cut-off read from the data, not from the text of the source: active = GI50 up to about 1.1 µM and inactive = higher.
What was measured:
Test in all cases: NCI-60 cell line screen, 48 h
786-0 = system: 786-0
A498 = system: A498
A549 = system: A549
ACHN = system: ACHN
CAKI-1 = system: CAKI-1
COLO 205 = system: COLO 205
DU-145 = system: DU-145
EKVX = system: EKVX
HCC 2998 = system: HCC 2998
HCT-15 = system: HCT-15
HL-60 = system: HL-60
HOP-62 = system: HOP-62
HOP-92 = system: HOP-92
HT-29 = system: HT-29
Hs-578T = system: Hs-578T
IGROV-1 = system: IGROV-1
K562 = system: K562
KM12 = system: KM12
LOX IMVI = system: LOX IMVI
M14 = system: M14
MCF7 = system: MCF7
MDA-MB-231 = system: MDA-MB-231
MDA-MB-435 = system: MDA-MB-435
MDA-N = system: MDA-N
MOLT-4 = system: MOLT-4
Malme-3M = system: Malme-3M
NCI-H226 = system: NCI-H226
NCI-H23 = system: NCI-H23
NCI-H460 = system: NCI-H460
NCI-H522 = system: NCI-H522
NCI/ADR-RES = system: NCI/ADR-RES
OVCAR-3 = system: OVCAR-3
OVCAR-4 = system: OVCAR-4
OVCAR-5 = system: OVCAR-5
OVCAR-8 = system: OVCAR-8
PC-3 = system: PC-3
RPMI-8226 = system: RPMI-8226
SF-268 = system: SF-268
SF-295 = system: SF-295
SF-539 = system: SF-539
SK-MEL-28 = system: SK-MEL-28
SK-MEL-2 = system: SK-MEL-2
SK-MEL-5 = system: SK-MEL-5
SK-OV-3 = system: SK-OV-3
SNB-19 = system: SNB-19
SNB-75 = system: SNB-75
SW-620 = system: SW-620
T47D = system: T47D
TK-10 = system: TK-10
U-251 = system: U-251
UACC-257 = system: UACC-257
UACC-62 = system: UACC-62
UO-31 = system: UO-31
BT-549 = system: BT-549
CCRF-CEM = system: CCRF-CEM
HCT-116 = system: HCT-116
RXF 393 = system: RXF 393
SN12C = system: SN12C
SR = system: SR

CCOC(=O)N1CCC2(CC1)C[C@@](C(C)=O)(c1ccccc1)C(C)O2 (stereo not given in full)
GI50 (786-0): > 100 µM (inactive) | GI50 (A498): > 100 µM (inactive) | GI50 (A549): 51.3 µM (inactive) | GI50 (ACHN): > 100 µM (inactive) | GI50 (CAKI-1): > 100 µM (inactive) | GI50 (COLO 205): > 100 µM (inactive) | GI50 (DU-145): > 100 µM (inactive) | GI50 (EKVX): > 100 µM (inactive) | GI50 (HCC 2998): > 100 µM (inactive) | GI50 (HCT-15): > 100 µM | GI50 (HL-60): > 100 µM (inactive) | GI50 (HOP-62): > 100 µM (inactive) | GI50 (HOP-92): 61.1 µM (inactive) | GI50 (HT-29): > 100 µM (inactive) | GI50 (Hs-578T): > 100 µM (inactive) | GI50 (IGROV-1): > 100 µM (inactive) | GI50 (K562): > 100 µM (inactive) | GI50 (KM12): > 100 µM (inactive) | GI50 (LOX IMVI): > 100 µM (inactive) | GI50 (M14): > 100 µM (inactive) | GI50 (MCF7): > 100 µM (inactive) | GI50 (MDA-MB-231): > 100 µM (inactive) | GI50 (MDA-MB-435): > 100 µM (inactive) | GI50 (MDA-N): 85.1 µM (inactive) | GI50 (MOLT-4): > 100 µM (inactive) | GI50 (Malme-3M): > 100 µM (inactive) | GI50 (NCI-H226): > 100 µM (inactive) | GI50 (NCI-H23): > 100 µM (inactive) | GI50 (NCI-H460): > 100 µM (inactive) | GI50 (NCI-H522): > 100 µM (inactive) | GI50 (NCI/ADR-RES): > 100 µM (inactive) | GI50 (OVCAR-3): > 100 µM (inactive) | GI50 (OVCAR-4): > 100 µM (inactive) | GI50 (OVCAR-5): > 100 µM (inactive) | GI50 (OVCAR-8): > 100 µM (inactive) | GI50 (PC-3): > 100 µM (inactive) | GI50 (RPMI-8226): > 100 µM (inactive) | GI50 (SF-268): > 100 µM (inactive) | GI50 (SF-295): > 100 µM (inactive) | GI50 (SF-539): > 100 µM (inactive) | GI50 (SK-MEL-28): > 100 µM (inactive) | GI50 (SK-MEL-2): > 100 µM (inactive) | GI50 (SK-MEL-5): > 100 µM (inactive) | GI50 (SK-OV-3): 57.4 µM (inactive) | GI50 (SNB-19): > 100 µM (inactive) | GI50 (SNB-75): 80.7 µM (inactive) | GI50 (SW-620): > 100 µM (inactive) | GI50 (T47D): 17 µM (inactive) | GI50 (TK-10): > 100 µM (inactive) | GI50 (U-251): > 100 µM (inactive) | GI50 (UACC-257): > 100 µM (inactive) | GI50 (UACC-62): 56 µM (inactive) | GI50 (UO-31): > 100 µM (inactive)

CC(=O)N(C)c1cc(NCc2ccccc2)ccc1OCc1ccccc1
GI50 (786-0): 27.9 µM (inactive) | GI50 (A498): 16.3 µM (inactive) | GI50 (A549): 18.3 µM (inactive) | GI50 (ACHN): 17.3 µM (inactive) | GI50 (BT-549): 20.6 µM (inactive) | GI50 (CAKI-1): 17.7 µM (inactive) | GI50 (CCRF-CEM): 23.6 µM (inactive) | GI50 (COLO 205): 22.3 µM (inactive) | GI50 (DU-145): 17.1 µM (inactive) | GI50 (EKVX): 18.5 µM (inactive) | GI50 (HCC 2998): 18.8 µM (inactive) | GI50 (HCT-116): 31.8 µM (inactive) | GI50 (HCT-15): 19.1 µM | GI50 (HL-60): 26 µM (inactive) | GI50 (HOP-62): 33 µM (inactive) | GI50 (HOP-92): 12.7 µM (inactive) | GI50 (HT-29): 20.6 µM (inactive) | GI50 (Hs-578T): 31.4 µM (inactive) | GI50 (IGROV-1): 16.4 µM (inactive) | GI50 (K562): 22.1 µM (inactive) | GI50 (KM12): 21.3 µM (inactive) | GI50 (LOX IMVI): 20 µM (inactive) | GI50 (M14): 22.1 µM (inactive) | GI50 (MCF7): 17.9 µM (inactive) | GI50 (MDA-MB-231): 15.8 µM (inactive) | GI50 (MDA-MB-435): 16.6 µM (inactive) | GI50 (MOLT-4): 25.8 µM (inactive) | GI50 (Malme-3M): 16.1 µM (inactive) | GI50 (NCI-H226): 18.4 µM (inactive) | GI50 (NCI-H23): 24.4 µM (inactive) | GI50 (NCI-H460): 17.9 µM (inactive) | GI50 (NCI-H522): 17.9 µM (inactive) | GI50 (NCI/ADR-RES): 20.2 µM (inactive) | GI50 (OVCAR-3): 16.6 µM (inactive) | GI50 (OVCAR-4): 18.7 µM (inactive) | GI50 (OVCAR-5): 19.3 µM (inactive) | GI50 (OVCAR-8): 17.3 µM (inactive) | GI50 (RXF 393): 14.8 µM (inactive) | GI50 (SF-268): 14.7 µM (inactive) | GI50 (SF-295): 15.4 µM (inactive) | GI50 (SF-539): 17.3 µM (inactive) | GI50 (SK-MEL-28): 18.9 µM (inactive) | GI50 (SK-MEL-2): 16.9 µM (inactive) | GI50 (SK-MEL-5): 18.3 µM (inactive) | GI50 (SK-OV-3): 21.7 µM (inactive) | GI50 (SN12C): 17.5 µM (inactive) | GI50 (SNB-19): 17.9 µM (inactive) | GI50 (SNB-75): 22.2 µM (inactive) | GI50 (SR): 15.5 µM (inactive) | GI50 (SW-620): 24.9 µM (inactive) | GI50 (T47D): 36.6 µM (inactive) | GI50 (TK-10): 17.7 µM (inactive) | GI50 (U-251): 17.4 µM (inactive) | GI50 (UACC-257): 17.3 µM (inactive) | GI50 (UACC-62): 16.4 µM (inactive) | GI50 (UO-31): 14.8 µM (inactive)

Clc1ccc2sc(-n3ccc4ccccc43)nc2c1
GI50 (A498): > 100 µM (inactive) | GI50 (ACHN): > 100 µM (inactive) | GI50 (BT-549): 84.3 µM (inactive) | GI50 (CCRF-CEM): > 100 µM (inactive) | GI50 (EKVX): > 100 µM (inactive) | GI50 (HCC 2998): > 100 µM (inactive) | GI50 (HCT-15): > 100 µM | GI50 (HT-29): 75.9 µM (inactive) | GI50 (Hs-578T): 72.6 µM (inactive) | GI50 (IGROV-1): > 100 µM (inactive) | GI50 (K562): 97.1 µM (inactive) | GI50 (LOX IMVI): > 100 µM (inactive) | GI50 (MCF7): 26.1 µM (inactive) | GI50 (MOLT-4): 55.7 µM (inactive) | GI50 (NCI-H23): 45.7 µM (inactive) | GI50 (NCI-H460): > 100 µM (inactive) | GI50 (NCI/ADR-RES): > 100 µM (inactive) | GI50 (OVCAR-5): > 100 µM (inactive) | GI50 (OVCAR-8): > 100 µM (inactive) | GI50 (PC-3): 67.6 µM (inactive) | GI50 (RXF 393): 13.3 µM (inactive) | GI50 (SF-268): > 100 µM (inactive) | GI50 (SK-MEL-28): > 100 µM (inactive) | GI50 (SK-MEL-5): > 100 µM (inactive) | GI50 (SK-OV-3): > 100 µM (inactive) | GI50 (SN12C): > 100 µM (inactive) | GI50 (SNB-19): 24.2 µM (inactive) | GI50 (SNB-75): 49.3 µM (inactive) | GI50 (SW-620): > 100 µM (inactive) | GI50 (TK-10): > 100 µM (inactive) | GI50 (U-251): > 100 µM (inactive) | GI50 (UACC-62): > 100 µM (inactive) | GI50 (UO-31): > 100 µM (inactive)

CC(OC(=O)NCn1cc(-c2ccccc2)nn1)c1ccccc1 (stereo not given)
GI50 (786-0): 88.7 µM (inactive) | GI50 (A549): 35.7 µM (inactive) | GI50 (ACHN): 61.2 µM (inactive) | GI50 (BT-549): 32.4 µM (inactive) | GI50 (CAKI-1): > 100 µM (inactive) | GI50 (CCRF-CEM): 31.6 µM (inactive) | GI50 (COLO 205): 34.6 µM (inactive) | GI50 (DU-145): 42.1 µM (inactive) | GI50 (EKVX): 63.2 µM (inactive) | GI50 (HCC 2998): 39.2 µM (inactive) | GI50 (HCT-116): 27.9 µM (inactive) | GI50 (HCT-15): 50.6 µM | GI50 (HL-60): 27.8 µM (inactive) | GI50 (HOP-62): > 100 µM (inactive) | GI50 (HOP-92): 56.2 µM (inactive) | GI50 (HT-29): 25.6 µM (inactive) | GI50 (IGROV-1): 35.4 µM (inactive) | GI50 (K562): 31.2 µM (inactive) | GI50 (KM12): 37.7 µM (inactive) | GI50 (LOX IMVI): 75 µM (inactive) | GI50 (M14): 17.8 µM (inactive) | GI50 (MCF7): 38.5 µM (inactive) | GI50 (MDA-MB-231): 34.3 µM (inactive) | GI50 (MDA-MB-435): 28.8 µM (inactive) | GI50 (MOLT-4): 20.8 µM (inactive) | GI50 (Malme-3M): 30.3 µM (inactive) | GI50 (NCI-H226): 14.9 µM (inactive) | GI50 (NCI-H23): 27.1 µM (inactive) | GI50 (NCI-H460): 46.5 µM (inactive) | GI50 (NCI-H522): 27.4 µM (inactive) | GI50 (NCI/ADR-RES): 33.7 µM (inactive) | GI50 (OVCAR-4): > 10 µM (inactive) | GI50 (OVCAR-5): 49.3 µM (inactive) | GI50 (OVCAR-8): 44.4 µM (inactive) | GI50 (PC-3): 2.39 µM (inactive) | GI50 (RPMI-8226): 30.2 µM (inactive) | GI50 (SF-295): 43.8 µM (inactive) | GI50 (SF-539): 38.9 µM (inactive) | GI50 (SK-MEL-28): 97.9 µM (inactive) | GI50 (SK-MEL-2): 37.8 µM (inactive) | GI50 (SK-MEL-5): 17.3 µM (inactive) | GI50 (SN12C): 97.1 µM (inactive) | GI50 (SNB-19): > 100 µM (inactive) | GI50 (SR): 30.2 µM (inactive) | GI50 (SW-620): 58.7 µM (inactive) | GI50 (TK-10): 75.2 µM (inactive) | GI50 (U-251): 45.7 µM (inactive) | GI50 (UACC-257): 35.1 µM (inactive)

From ChEMBL document CHEMBL1201862, “PubChem BioAssay data set” (2004)
